This assay concerns the target T1, PKCζ (protein kinase C ζ) (Homo sapiens, UniProt Q05513).
T1 construct: gene PRKCZ
T1 sequence (Q05513 1-592): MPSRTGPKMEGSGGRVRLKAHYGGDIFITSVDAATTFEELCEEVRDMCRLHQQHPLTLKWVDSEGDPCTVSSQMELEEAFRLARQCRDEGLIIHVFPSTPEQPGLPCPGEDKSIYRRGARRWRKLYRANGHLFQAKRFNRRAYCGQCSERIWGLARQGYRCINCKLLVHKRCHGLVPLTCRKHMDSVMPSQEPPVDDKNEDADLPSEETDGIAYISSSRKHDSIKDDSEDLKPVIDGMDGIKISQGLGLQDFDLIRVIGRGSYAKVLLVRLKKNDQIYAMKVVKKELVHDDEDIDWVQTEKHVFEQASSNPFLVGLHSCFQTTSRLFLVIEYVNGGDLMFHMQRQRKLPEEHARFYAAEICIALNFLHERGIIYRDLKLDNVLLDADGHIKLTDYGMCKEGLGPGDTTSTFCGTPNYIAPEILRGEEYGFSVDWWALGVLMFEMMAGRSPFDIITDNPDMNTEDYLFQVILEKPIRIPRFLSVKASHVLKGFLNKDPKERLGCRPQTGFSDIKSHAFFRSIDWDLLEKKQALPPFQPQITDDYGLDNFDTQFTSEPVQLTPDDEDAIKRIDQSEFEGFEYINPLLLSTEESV
Nature of the assay: Z'-LYTE kinase assay (Ser/Thr […] peptide) with purchased PKCζ (Invitrogen Cat. No. […]), […] ATP. It counts as biochemical.

In general, IC50 refers to the concentration that gives 50% inhibition. Read a low IC50 as higher potency. Consider `Cc1c(CSC(=N)N)c(C)c(CSC(=N)N)c(C)c1CSC(=N)N` [J-4], for which the IC50 was ~10 µM.

These data come from paper PMC5581453, “Combination therapy of PKCζ and COX-2 inhibitors synergistically suppress melanoma metastasis” (Journal of Experimental & Clinical Cancer Research : CR, 2017).
